Assay results as given in patent publication US10738011B2, “Derivatives of 5-(hetero)arylpyrazol-3-carboxylic amide or 1-(hetero)aryltriazol-4-carboxylic amide useful for the treatment of inter alia cystic fibrosis” (Proteostasis Therapeutics, Inc., priority 2014, dated 2020).

Each compound was assayed against T1, ΔF508-CFTR (Homo sapiens, UniProt P13569, DEL508-508) (assay: hBE Equivalent Current (Ieq) Assay). Conditions: AUC of equivalent chloride current; primary lung epithelial cells homozygous for ΔF508; compound at 10 uM with VX-809 at 1 uM, 24 hours; activity relative to VX-809 (1 uM).
T1 construct: Primary lung epithelial cells homozygous for the Cystic Fibrosis-causing ΔF508 mutation were differentiated; endogenous in cells; host or cells: primary lung (bronchial) epithelial cells (hBE) homozygous for ΔF508, differentiated at an air-liquid interface
T1 sequence (P13569 with tags, fused parts or gaps DEL508-508): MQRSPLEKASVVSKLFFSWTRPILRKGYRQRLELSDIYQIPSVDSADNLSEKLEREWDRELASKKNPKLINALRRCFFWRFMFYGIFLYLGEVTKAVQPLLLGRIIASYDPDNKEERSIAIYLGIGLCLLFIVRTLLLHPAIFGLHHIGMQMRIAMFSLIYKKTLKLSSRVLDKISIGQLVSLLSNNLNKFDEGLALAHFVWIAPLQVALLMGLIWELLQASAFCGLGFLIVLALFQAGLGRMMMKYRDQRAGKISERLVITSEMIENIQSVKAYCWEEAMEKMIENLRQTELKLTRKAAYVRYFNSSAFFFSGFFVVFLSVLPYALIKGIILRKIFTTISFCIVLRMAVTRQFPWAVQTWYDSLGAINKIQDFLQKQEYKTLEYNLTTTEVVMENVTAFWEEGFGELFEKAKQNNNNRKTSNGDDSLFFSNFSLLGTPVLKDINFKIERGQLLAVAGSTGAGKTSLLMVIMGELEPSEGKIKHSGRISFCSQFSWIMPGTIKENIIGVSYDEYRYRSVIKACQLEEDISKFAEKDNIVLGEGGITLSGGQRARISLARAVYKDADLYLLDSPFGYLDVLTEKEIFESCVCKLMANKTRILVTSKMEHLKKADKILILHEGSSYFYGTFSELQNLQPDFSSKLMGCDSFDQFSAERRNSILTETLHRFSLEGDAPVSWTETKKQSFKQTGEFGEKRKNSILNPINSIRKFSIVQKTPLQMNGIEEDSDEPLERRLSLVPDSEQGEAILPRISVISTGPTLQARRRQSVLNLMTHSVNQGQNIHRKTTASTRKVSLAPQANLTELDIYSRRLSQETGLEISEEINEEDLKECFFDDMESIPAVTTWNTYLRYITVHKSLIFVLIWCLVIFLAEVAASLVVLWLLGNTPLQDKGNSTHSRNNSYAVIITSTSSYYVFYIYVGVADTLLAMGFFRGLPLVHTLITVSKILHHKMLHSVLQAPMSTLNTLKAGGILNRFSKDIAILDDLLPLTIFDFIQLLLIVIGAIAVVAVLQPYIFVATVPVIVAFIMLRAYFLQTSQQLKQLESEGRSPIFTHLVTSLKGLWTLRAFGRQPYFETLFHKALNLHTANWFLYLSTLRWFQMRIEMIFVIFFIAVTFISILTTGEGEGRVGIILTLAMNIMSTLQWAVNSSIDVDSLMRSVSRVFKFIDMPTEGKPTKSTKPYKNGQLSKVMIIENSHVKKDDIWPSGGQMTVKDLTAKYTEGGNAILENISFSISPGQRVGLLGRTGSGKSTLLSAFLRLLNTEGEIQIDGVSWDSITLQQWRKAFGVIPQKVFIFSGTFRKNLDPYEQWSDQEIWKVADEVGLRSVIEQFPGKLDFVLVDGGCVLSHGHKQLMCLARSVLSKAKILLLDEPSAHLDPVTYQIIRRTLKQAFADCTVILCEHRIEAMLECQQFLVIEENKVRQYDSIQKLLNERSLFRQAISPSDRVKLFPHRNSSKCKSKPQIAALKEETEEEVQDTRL
Assay type: cell-based
Protocol: Primary lung epithelial cells homozygous for the Cystic Fibrosis-causing ΔF508 mutation were differentiated for a minimum of 4 weeks in an air-liquid interface on Costar 24 well HTS filter plates prior to the equivalent current (Ieq) measurements. Cells were apically mucus-washed for 30 minutes 24 h prior to treatment with compounds. The basolateral media was removed and replaced with media containing the compound of interest diluted to its final concentration from DMSO stocks. Treated cells were incubated at 37° C. and 5% CO2 for 24 hours. At the end of the treatment period, the media was changed to the Ieq experimental solution for 30 minutes before the experiment and plates are maintained in a CO2-free incubator during this period. The plates containing the cells were then placed in pre-warmed heating blocks at 36° C.±0.5 for 15 minutes before measurements are taken. The transepithelial voltage (VT) and conductance (GT) were measured using a custom 24 channel current clamp (TECC-24) with 24 well electrode manifold. The Ieq assay measurements were made following additions with standardized time periods: • 1. The baseline VT and GT values were measured for approximately 20 minutes. • 2. Benzamil was added to block ENaC for 15 minutes. • 3. Forskolin plus VX-770 were added to maximally activate ΔF508-CFTR for 27 minutes. • 4. Bumetanide was added to inhibit the NaK2Cl cotransporter and shut-off secretion of chloride.
The activity data captured was the area under the curve (AUC) for the traces of the equivalent chloride current. The AUC was collected from the time of the forskolin/VX-770 addition until the inhibition by bumetanide addition. Correction in response to compound treatment was scored as the increase in the AUC for compound-treated samples over that of vehicle-treated samples. (** indicates activity ≥200% of VX-809 (1 uM) with compound at 10 uM and VX-809 at 1 uM; * indicates activity 100-200% of VX-809 (1 uM) with compound at 10 uM and VX-809 at 1 uM. ^## indicates activity ≥200% of VX-809 (3 uM) with compound at 10 uM and VX-809 at 3 uM; ^# indicates activity 100-200% of VX-809 (3 uM) with compound at 10 uM and VX-809 at 3 uM.
With COCCNC(=O)c1cc(-c2ccccc2)n[nH]1 the Ieq was “* (activity 100-200% of VX-809 (1 uM) with compound at 10 uM and VX-809 at 1 uM)”. With O=C(NCC1CCCO1)c1cc(-c2ccccc2)n[nH]1 (stereo not shown) the Ieq was “* (activity 100-200% of VX-809 (1 uM) with compound at 10 uM and VX-809 at 1 uM)”. O=C(NCCCn1ccnc1)c1cc(-c2ccccc2)n[nH]1 was tested, and the Ieq was “* (activity 100-200% of VX-809 (1 uM) with compound at 10 uM and VX-809 at 1 uM)”. O=C(NCCN1CCOCC1)c1cc(-c2ccccc2)n[nH]1 was tested, and the Ieq was “* (activity 100-200% of VX-809 (1 uM) with compound at 10 uM and VX-809 at 1 uM)”.
